Measurements taken from publication PMC8653149, “Cyclic Analogs of Desferrioxamine E Siderophore for ^68Ga Nuclear Imaging: Coordination Chemistry and Biological Activity in Staphylococcus aureus” (Inorganic Chemistry, 2021).

Legend:
[1] = Cyclic voltammetry of Fe(III)-FOXE derivative complexes (redox potential, Fe(II) stability constants); format: physicochemical; details: for E1/2 vs NHE: CV; for E1/2 vs NHE / logβFe(II): [L] = 2 × 10^–3 M, M:L 1:1, pH = 7, T = 25 °C; for E°complex: [Fe(III)] = 2·10^-3 M, M:L ratio 1:1, pH = 7, T = 25°C, I = 0.1M NaClO4, glass-carbon working electrode; for logβFe(II): calculated from CV measurement
Experimental: Redox chemistry of Fe(III) species was determined in cyclic voltammetry (CV) assays. […] We have obtained quasireversible voltammograms for Fe(III)-FOXE analog complexes (Figure S8), with ΔE ranging from −369 mV to −470 mV. The values of E1/2 (Table 1) were recalculated vs normal hydrogen electrode (NHE). To ensure that only fully hexacoordinated complexes [FeL] were characterized, experiments were carried out at fixed pH = 7 where this form is dominating in solution. Higher strength of the complex (larger pM value) correlates to lower redox potential. This behavior was in agreement with previously reported data[61],[62] for similar complexation systems.
Redox potentials for Fe(III)-FOXE derivatives were determined using cyclic voltammetry with a VA 797 Computrace Voltammeter (Metrohm) equipped with glass-carbon, AgCl/Cl, and platinum wire electrodes. Concentration of the measured samples was [Fe(III)] = 2 × 10^–3, M:L ratio 1:1, at 25.0 ± 0.1 °C; pH 7.0 was provided by addition of a suitable amount of NaOH under control of a pH meter. The scan range was from −0.3 V to −1 V in a cycle: Fe(III)–FOX [drawing 1] Fe(II)–FOX [drawing 2] Fe(III)–FOX. Received data (Figure S8) was standardized for the NHE electrode. The electrochemical data were refined to obtain the overall Fe(II)-FOXE derivative binding constant (logβFe(II)L^–) by implementing the Nernst equation (S1).
Figure S8. CV voltammograms used to calculate (logβ) constants for studied complexes a with
Fe(II) ions: a) FOX 2-2, b) Fe-FOX 2-3, c) FOX 2-4, d) FOX 2-5, e) FOX 3-5
aConditions: [Fe(III)] = 2·10^-3 M, M:L ratio 1:1, pH = 7, T = 25°C, I = 0.1M NaClO 4 on glass-carbon working
For each complex the stability constant for Fe(II)-analog was calculated using eq. S10
E complex ― Eaq = ―59.15log (βII) (S10)
Table S9. E 1/2 and stability (logβ) constants for studied complexes with Fe(II) ions a […]

[2] = Ligand protonation constants by potentiometric titration; format: physicochemical; details: [L] = 1·10^-3 M, T = 25°C, I = 0.1 M NaClO4
Experimental: Potentiometric titrations were performed using an automatic titrator system Titrando 905 (Metrohm) equipped with a 800 Dosino dosing unit and a microburet with a volume of 2 mL. A combined glass electrode was calibrated each day for hydrogen ion concentration by 0.1 M HClO4 with CO2-free 0.1 M NaOH solutions. A stream of high purity grade argon, presaturated with water vapor, passed over the surface of the solution cell, filled with 3 mL of the studied solution. For each system, a minimum of four independent titrations was performed. The purity of ligand and accurate concentration of ligand solution were determined before each experiment with the Gran method[68] by potentiometric titration of the 3 mL sample of the ligand, with [L] ∼ 1 × 10^–3 M. In separate potentiometric titrations, the metal-to-ligand ratio was 1:1, and the concentration of metal was 2 × 10^–3 M. The potentiometric data were refined to obtain the overall Fe(III)-FOXE and Ga(III)-FOXE derivative binding constants (logβFe(III)L, logβGa(III)L). […]
Ligand’s protonation constants
The acid-base properties of investigated ligands were studied by potentiometric technique. The optimized logβ values defined by equations (S1) and (S2) were calculated using […] 1 […]
or Hyperquad 20062 programs (Table S4). For the sake of simplicity charges are omitted in all chemical equilibria given here.
Table S4. Protonation (logβ H) constants for studied ligandsa […]
aConstants determined from potentiometric titrations. Conditions: [L] = 1·10^-3 M, T = 25°C, I = 0.1 M NaClO 4, b Ref 3 […]

[3] = Distribution coefficient (logD) of ^68Ga-labeled ligands between octanol and PBS
[4] = Ligand–ligand competition UV–vis titrations of Fe(III) complexes vs EDTA; format: physicochemical; details: [L] = 1.5·10^-4 M, M:L ratio 1:1, pH = 7, T = 25°C, I = 0.1 M NaClO4
Experimental: In this series of experiments, the stock solution of FOX ligand was divided into various batches followed by metal addition with a constant total volume of 2 mL, [Fe(III)] = 2 × 10^–4, and a metal-to-ligand molar ratio of 1:1. The EDTA ligand was added to a previously prepared series of solutions in increasing concentration, from a 0 to 10 molar excess for FOX 2-5 and from a 0 to 1.2 molar excess for the rest of the derivatives. pH was adjusted to ∼7 with the NaOH solution. After preparation, each solution was allowed to equilibrate for 3–7 days, depending on the investigated complex. Changes were observed between the collected spectra, and they were measured consequently until no further changes were present. The UV–vis spectra were recorded (Figure S4), and competition data were refined to obtain the overall Fe(III)-FOXE derivative binding constant (logβFe(III)L). The protonation constants of FOXE derivatives (Table S4) and formation constants for Fe(III)-FOXE derivative complex species (Table S5) were treated as fixed parameters in data analysis.
The spectrophotometric competition experiments with EDTA
The spectrophotometric competition experiments with EDTA were performed at fixed pH 7.0,
to compete effectively with the tris-hydroxamates for ferric ion at intermediate pH values (5-8)
if an excess of EDTA is used. The competition equilibrium is described by equations (S5) and
Fe IIIL  EDTA K  FeIII EDTA  L (S5)
[FeIII L][EDTA]  Fe(III)L (S6)
The competition data were refined to obtain the overall Fe(III)-FOX binding constant logβ FeL
(Table S7) for analogs using a model involving two ligands and one metal.
The concentration of Fe(III)-analog complex for each derivative, [FeL], was calculated from
the absorbance maximum at around 420 nm (where FeL is the only light-absorbing species) and
previously determined extinction coefficients. The concentrations of other species in equation
(S6) were calculated from mass balance equations using the experimental pH values:
[Fe]tot =  FeL[FeL] +  FeEDTA[FeEDTA]
[L]tot =  FeL[FeL] +  L[L]
[EDTA]tot =  FeEDTA[FeEDTA] +  EDTA[EDTA]
a is the usual Ringbom’s coefficient.

Structure (SMILES) | E1/2 vs NHE [1] | E°complex [1] | logβFe(II) [1] | protonation constant logβ, H2L + H+ ↔ H3L [2] | protonation constant logβ, HL + H+ ↔ H2L [2] | protonation constant logβ, L + H+ ↔ HL [2] | logD at 20 min [3] | logβ[FeL] [4]
O=C1CCCCCN(O)C(=O)CCNC(=O)CCCCCN(O)C(=O)CCNC(=O)CCCCCN(O)C(=O)CCN1 [FOX 2-5] | –452 mv | -452 mV | 11.29 | 26.53(1) | 19.09(1) | 9.86(1) | -1.9 | 28.81 (1)
O=C1CCCCN(O)C(=O)CCNC(=O)CCCCN(O)C(=O)CCNC(=O)CCCCN(O)C(=O)CCN1 [FOX 2-4] | –426 mv | -426 mV | 9.12 | 27.64(1) | 19.21(1) | 9.93(1) | -3.02 | 27.13 (1)
O=C1CCCN(O)C(=O)CCNC(=O)CCCN(O)C(=O)CCNC(=O)CCCN(O)C(=O)CCN1 [FOX 2-3] | –432 mv | -432 mV | 7.54 | 27.71(1) | 19.27(1) | 9.94(1) | -2.96 | 26.55 (3)
O=C1CCN(O)C(=O)CCNC(=O)CCN(O)C(=O)CCNC(=O)CCN(O)C(=O)CCN1 [FOX 2-2] | –369 mv | -369 mV | 7.48 | 27.62(2) | 19.28(1) | 9.97(1) | -2.66 | 26.57 (4)
O=C1CCCCCN(O)C(=O)CCCNC(=O)CCCCCN(O)C(=O)CCCNC(=O)CCCCCN(O)C(=O)CCCN1 [FOX 3-5] | –416 mv | -416 mV | 8.48 | 27.79(1) | 19.53(1) | 10.19(1) | -1.57 | 28.38 (1)
